Test results as given in the supplement of paper PMC10307832.

Assays:
Test in all cases: relative viability (nuclei count vs DMSO), 5 days (fraction); higher = more cells survive
Vemurafenib + Trametinib = compound: CCCS(=O)(=O)Nc1ccc(F)c(C(=O)c2c[nH]c3ncc(-c4ccc(Cl)cc4)cc23)c1F [Vemurafenib] + CC(=O)Nc1cccc(-n2c(=O)n(C3CC3)c(=O)c3c(Nc4ccc(I)cc4F)n(C)c(=O)c(C)c32)c1 [Trametinib] (partner 0.02 µM)
Procedure, shortened: (§1)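 Lung cancer cell lines, seeded in 1536-well plates, were treated the following day by pin tool with a single drug or with five library-drug doses (not always all listed) in √10 steps on top of a fixed anchor-drug dose. Cells were fixed and nuclei stained in one step after 5 days, and nuclei were counted. Relative viability is the nuclei count for treated wells divided by that for vehicle wells, reported as medians of duplicate plates.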

Vemurafenib + Dasatinib = compound: CCCS(=O)(=O)Nc1ccc(F)c(C(=O)c2c[nH]c3ncc(-c4ccc(Cl)cc4)cc23)c1F [Vemurafenib] + Cc1nc(Nc2ncc(C(=O)Nc3c(C)cccc3Cl)s2)cc(N2CCN(CCO)CC2)n1 [Dasatinib] (partner 0.075 µM)
Procedure, shortened: as §1

OSI-027 + Crizotinib = compound: COc1cccc2cc(-c3nc([C@H]4CC[C@H](C(=O)O)CC4)n4ncnc(N)c34)[nH]c12 [OSI-027] + C[C@@H](Oc1cc(-c2cnn(C3CCNCC3)c2)cnc1N)c1c(Cl)ccc(F)c1Cl [Crizotinib] (partner 1 µM)
Procedure, shortened: as §1

OSI-027 + Olaparib = compound: COc1cccc2cc(-c3nc([C@H]4CC[C@H](C(=O)O)CC4)n4ncnc(N)c34)[nH]c12 [OSI-027] + O=C(c1cc(Cc2n[nH]c(=O)c3ccccc23)ccc1F)N1CCN(C(=O)C2CC2)CC1 [Olaparib] (partner 8 µM)
Procedure, shortened: as §1

For UMC-11, the relative viability (Vemurafenib + Trametinib; first compound 0.03162 µM) was 0.657, the relative viability (Vemurafenib + Trametinib; first compound 0.1 µM) was 0.756 and the relative viability (Vemurafenib + Trametinib; first compound 0.3162 µM) was 0.475. It also gave a relative viability (Vemurafenib + Trametinib; first compound 1 µM) of 0.355, a relative viability (Vemurafenib + Dasatinib; first compound 0.03162 µM) of 0.465 and a relative viability (Vemurafenib + Dasatinib; first compound 0.1 µM) of 0.459. The relative viability (Vemurafenib + Dasatinib; first compound 0.3162 µM) was 0.455, the relative viability (Vemurafenib + Dasatinib; first compound 1 µM) was 0.537 and the relative viability (OSI-027 + Crizotinib; first compound 0.01 µM) was 0.499. It also gave a relative viability (OSI-027 + Crizotinib; first compound 0.03162 µM) of 0.535, a relative viability (OSI-027 + Crizotinib; first compound 0.1 µM) of 0.587 and a relative viability (OSI-027 + Crizotinib; first compound 0.3162 µM) of 0.491. It also gave a relative viability (OSI-027 + Crizotinib; first compound 1 µM) of 0.378, a relative viability (OSI-027 + Olaparib; first compound 0.01 µM) of 0.388 and a relative viability (OSI-027 + Olaparib; first compound 0.03162 µM) of 0.42. For the same cell line, the relative viability (OSI-027 + Olaparib; first compound 0.1 µM) was 0.31, the relative viability (OSI-027 + Olaparib; first compound 0.3162 µM) was 0.349 and the relative viability (OSI-027 + Olaparib; first compound 1 µM) was 0.291.
